Series [1] has as its system liver microsomes and hepatocytes of humans. The series can be described thus: Metabolic stability in liver microsomes and hepatocytes, humans. The series is classed as in vitro ADME. (In general: Liver microsomes are vesicles of endoplasmic reticulum, rich in cytochrome P450 enzymes.)
Series [2] relates to liver microsomes and hepatocytes of monkeys. The series can be described thus: Metabolic stability in liver microsomes and hepatocytes, monkeys. In kind it is in vitro ADME.
In series [3] the test system is liver microsomes and hepatocytes of dogs. Briefly: Metabolic stability in liver microsomes and hepatocytes, dogs. In kind it is in vitro ADME.
Series [4] can be described thus: Pharmacokinetics, time-course of plasma concentration after single oral treatment. In kind it is in vivo, rhesus monkeys. The conditions noted are these: for bioavailability: 3- or 4-year-old male rhesus monkeys; for area under the plasma concentration-time curve (AUC), dependence on dose / maximum plasma concentration (Cmax), dependence on dose / relationship between the dose and the plasma concentration: rhesus monkeys. The source says: The compound of Example 36 or Example 26 was studied about time-course of plasma concentration after single oral treatment to 3- or 4-year-old male rhesus monkeys. […] The relationship between the dose and the plasma concentration was linear. […] Therefore, it can be considered that these compounds are unlikely to be metabolized by first pass effect.

In series [5] the test system is male rhesus monkeys. The series can be described thus: Toxicological study, 14-day repeated oral dose in rhesus monkeys. In kind it is in vivo. As to the method:
The compound of Example 36 or Example 26 was orally given to 3-year-old male rhesus monkeys at 20 mg/kg/day or 40 mg/kg/day, respectively, once daily for 14 days.

Series [6] deals with liver microsomes and hepatocytes of rats. Briefly: Metabolic stability in liver microsomes and hepatocytes, rats. The series is classed as in vitro ADME.
The test system of series [7] is Citric Acid-Induced Cough Reflex in Guinea Pigs. The series can be described thus: Inhibitory effect on citric acid-induced cough reflex in guinea pigs (Experimental Example 1-1, plethysmograph). The series is classed as in vivo. The conditions noted are these: oral, 30 mg/kg, cough measured 1 hr after treatment. As to the method:
Guinea pigs were fasted overnight. They were fixed to a plethysmograph, and then the change of inner pressure in the plethysmograph (body side) was recorded on an ink-recording paper (Nihon Kohden Corporation; WI-642G) via the differential pressure transducer (Nihon Kohden Corporation; TP-602T) and the respiration amplifier (Nihon Kohden Corporation; AR-601G). Using a nebulizer (OMRON Corporation; NE-U12), 20 W/V % citric acid solution was sprayed into the plethysmograph (head side) for 2 min (about 1 mL/min). The number of cough response for 15 min after the spray was measured.
(§1) The cough response was measured 3 hrs before and 1 hr after oral treatment. The test compound was not administered to the guinea pigs showing 5 coughs response or less before the treatment. The ratio of cough response between before and after the treatment (Post/Pre×100) was calculated, and the percent inhibition of the test compound on cough reflex induced by citric acid was determined according to the following formula: [(CRRcontrol−CRRtest)/(CRRcontrol)]×100 (%) • CRRcontrol: Ratio (%) of cough response in the control group • CRRtest: Ratio (%) of cough response in the compound-treated group

Series [8] has as its system male rhesus monkeys. Briefly: Holter ECG test in rhesus monkeys. In kind it is in vivo. The conditions noted are these: oral, 4-year-old male rhesus monkeys. As to the method: In Holter ECG test, the compound of Example 36 or Example 26 was orally given to 4-year-old male rhesus monkeys at 40 mg/kg and 80 mg/kg, respectively.
The test system of series [9] is Wistar Hannover female rats. The series can be described thus: Toxicological study, 14-day repeated oral dose in rats. The conditions noted are these: 400 mg/kg/day once daily for 14 days. The series is classed as in vivo. As to the method: The compound of Example 26 was orally given to 6-week-old Wistar Hannover female rats at 400 mg/kg/day once daily for 14 days.

The subject of series [10] is human drug-metabolizing enzymes. Briefly: Inhibitory effect on human drug-metabolizing enzymes. In kind it is in vitro ADME.
Series [11] relates to Citric Acid-Induced Cough Reflex in Guinea Pigs. The series can be described thus: Inhibitory action on citric acid-induced cough reflex in guinea pigs (Experimental Example 1-2, nasal inhalation-exposure apparatus). The series is classed as in vivo. Conditions: oral, 30 mg/kg, cough measured 1 hr after treatment. As to the method: Guinea pigs were fasted overnight. They were fixed to an nasal inhalation-exposure apparatus for small animals (M.I.P.S. Co., Ltd.), and then 20 W/V % citric acid solution was sprayed into the plethysmograph for 2 min (about 1 mL/min) using a nebulizer (M.I.P.S. Co., Ltd.). The number of cough response for 15 min after the spray was measured.
as §1, with “5 cough responses” for “5 coughs response”, “compound-treated group.” for “compound-treated group”

Series [12] has as its system Wistar Hannover female rats. Briefly: Toxicological study, oral dose in rats. The conditions noted are these: 40 mg/kg, 6-week-old rats. In kind it is in vivo. As to the method: The compound of Example 36 was orally given to 6-week-old Wistar Hannover female rats at 40 mg/kg.
Where [13] appears, read: 40 mg/kg/day once daily for 14 days.
Setting [14] is: 20 mg/kg/day once daily for 14 days.

The structures appear in SMILES notation.

For `CN(CC1(O)CCN(CCc2ccc(C#N)cc2)CC1)c1ccc(C(=O)O)cc1.Cl` [Example 26, 4-({1-[2-(4-cyanophenyl)ethyl]-4-hydroxypiperidin-4-ylmethyl}methylamino)benzoic acid monohydrochloride], in [1], the “metabolic stability in liver microsomes and hepatocytes” value (“metabolic stability” for short) is “metabolically stable”. Also, the “metabolic stability” value in series [2] was “metabolically stable”. Further, in series [3], the “metabolic stability” value is given as “metabolically stable”. Further, in series [4], the bioavailability entry is given as “high”; the “area under the plasma concentration-time curve (AUC), dependence on dose” value is “increased almost in proportion to the doses”; the “maximum plasma concentration (Cmax), dependence on dose” value is given as “increased almost in proportion to the doses”; the “relationship between the dose and the plasma concentration” value is “linear”. Further, in series [5] (setting [13]), the “abnormality in weight gains and general behaviors” value is given as “no abnormality”; the “findings in hematological and biochemical examinations, organ weights and histopathological tests” value is given as “No apparent toxicological findings”; the “survival until 24 hours after the final treatment” value (shortened to “survival until 24 hours”) is “survived”. The “metabolic stability” value in series [6] is on record as “metabolically stable”. In [7], the “Percent inhibition on cough reflex” value came to 59%. The effect on electrocardiogram entry in series [8] (80 mg/kg) was “no effect”. In series [9], the “abnormality in general behaviors, weight gains, and food consumptions” value is “no abnormality”; the “findings in hematological and biochemical examinations, organ weights and histopathological tests” value was “No abnormal findings”; the “survival until 24 hours” value is listed as “survived”. Moreover, the “inhibitory effect on human drug-metabolizing enzymes” value in series [10] is listed as “almost no inhibitory effect”.

One may read the melting point as the temperature of the solid-liquid transition. Regarding `CN(CC1(O)CN(CCc2ccc(C#N)cc2)C1)c1ccc(C(=O)O)cc1.Cl` [Example 34, 4-({1-[2-(4-Cyanophenyl)ethyl]-3-hydroxyazetidin-3-ylmethyl}methylamino)benzoic acid monohydrochloride], the melting point was in the range of 209.1 to 210.5 °C. Moreover, in series [11], the “Percent inhibition on cough reflex” value turned out to be 39%.

Turning to `CN(CC1(O)CCN(CCc2ccc(C(F)(F)F)cc2)CC1)c1ccc(C(=O)O)cc1.Cl` [Example 35, 4-({4-hydroxy-1-[2-(4-trifluoromethylphenyl)ethyl]piperidin-4-ylmethyl}methylamino)benzoic acid monohydrochloride], the melting point is 235.1 to 246.9 °C. Further, the “Percent inhibition on cough reflex” value in series [11] turned out to be 43%.

As for `Cl.N#Cc1ccc(CCN2CCC(O)(COc3ccc(C(=O)O)cc3)CC2)cc1` [Example 36, 4-{1-[2-(4-cyanophenyl)ethyl]-4-hydroxypiperidin-4-ylmethoxy}benzoic acid monohydrochloride], the “metabolic stability” value in [1] is recorded as “metabolically stable”. Further, in series [2], the “metabolic stability” value was “metabolically stable”. Further, in [3], the “metabolic stability” value is reported as “metabolically stable”. In [4], the bioavailability entry was “high”; the “area under the plasma concentration-time curve (AUC), dependence on dose” value is “increased almost in proportion to the doses”; the “maximum plasma concentration (Cmax), dependence on dose” value is given as “increased almost in proportion to the doses”; the “relationship between the dose and the plasma concentration” value is “linear”. Further, in series [5] (setting [14]), the “abnormality in weight gains and general behaviors” value is given as “no abnormality”; the “findings in hematological and biochemical examinations, organ weights and histopathological tests” value is recorded as “No apparent toxicological findings”; the “survival until 24 hours” value was “survived”. The “metabolic stability” value in [6] is recorded as “metabolically stable”. In addition, the effect on electrocardiogram entry in series [8] (40 mg/kg) was “no effect”. In series [10], the “inhibitory effect on human drug-metabolizing enzymes” value is given as “almost no inhibitory effect”. In series [12], the “abnormality in general behaviors” value was “no abnormality” and the “survival during the examination period” value is “survived”.

The values above are taken from US7494987B2, “Agent for treating respiratory diseases containing 4-hydroxypiperidine derivative as active ingredient” (priority 2002, dated 2009).
